In patent US20250188040A1, “PHARMACEUTICAL COMPOSITIONS COMPRISING WRN HELICASE INHIBITORS” (Vividion Therapeutics, Inc., priority 2022, published 2025):
Read-outs that look alike come from different tables or passages of the source.

What was measured:
[1] = target: T1, WRN C727 (Homo sapiens, UniProt Q14191); experiment: Target engagement, in vitro (lysate), OCI-AML2; type: binding; conditions: read-out: OCI-AML2 WRN C727 TE50 in vitro (lysate)
T1 construct: endogenous in cells; host or cells: OCI-AML2
T1 sequence (Q14191 whole entry): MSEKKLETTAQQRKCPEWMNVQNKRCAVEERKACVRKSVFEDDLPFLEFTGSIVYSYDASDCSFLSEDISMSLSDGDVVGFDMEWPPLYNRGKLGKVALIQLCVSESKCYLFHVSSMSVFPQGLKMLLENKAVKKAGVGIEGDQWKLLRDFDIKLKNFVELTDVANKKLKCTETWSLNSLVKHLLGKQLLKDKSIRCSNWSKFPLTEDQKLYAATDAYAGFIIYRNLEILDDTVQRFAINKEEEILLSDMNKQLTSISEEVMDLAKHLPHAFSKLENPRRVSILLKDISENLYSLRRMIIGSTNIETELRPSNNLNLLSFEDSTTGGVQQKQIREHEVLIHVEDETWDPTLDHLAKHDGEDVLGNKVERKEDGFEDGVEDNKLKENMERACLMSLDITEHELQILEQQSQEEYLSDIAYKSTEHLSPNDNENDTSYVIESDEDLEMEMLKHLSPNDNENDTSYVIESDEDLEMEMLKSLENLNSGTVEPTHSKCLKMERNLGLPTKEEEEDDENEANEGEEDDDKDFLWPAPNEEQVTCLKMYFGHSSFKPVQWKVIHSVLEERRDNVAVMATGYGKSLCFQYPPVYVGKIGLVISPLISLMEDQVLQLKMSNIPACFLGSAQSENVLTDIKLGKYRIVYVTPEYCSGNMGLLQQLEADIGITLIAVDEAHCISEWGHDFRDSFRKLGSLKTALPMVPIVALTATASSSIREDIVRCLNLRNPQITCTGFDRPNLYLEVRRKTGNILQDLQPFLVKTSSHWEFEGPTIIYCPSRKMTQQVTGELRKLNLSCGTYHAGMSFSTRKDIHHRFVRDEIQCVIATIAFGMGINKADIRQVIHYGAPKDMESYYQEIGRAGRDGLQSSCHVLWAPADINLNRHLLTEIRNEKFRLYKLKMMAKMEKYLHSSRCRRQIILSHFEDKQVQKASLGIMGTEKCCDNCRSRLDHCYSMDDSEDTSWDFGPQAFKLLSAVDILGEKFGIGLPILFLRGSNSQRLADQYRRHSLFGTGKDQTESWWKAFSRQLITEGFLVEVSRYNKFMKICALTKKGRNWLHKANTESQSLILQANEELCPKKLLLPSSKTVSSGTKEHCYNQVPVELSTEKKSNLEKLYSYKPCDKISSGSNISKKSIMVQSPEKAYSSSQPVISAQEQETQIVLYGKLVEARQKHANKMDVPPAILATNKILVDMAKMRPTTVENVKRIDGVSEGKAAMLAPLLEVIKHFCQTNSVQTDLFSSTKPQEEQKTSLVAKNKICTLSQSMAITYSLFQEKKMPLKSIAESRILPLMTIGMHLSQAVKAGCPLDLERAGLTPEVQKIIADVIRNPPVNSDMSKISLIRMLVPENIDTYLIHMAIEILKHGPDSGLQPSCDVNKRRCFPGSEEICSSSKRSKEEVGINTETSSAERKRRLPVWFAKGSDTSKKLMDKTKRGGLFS
Summary of the method: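 OCI-AML2 intact cells or lysates dosed with compound, then a cysteine-reactive probe; after trypsin digestion, probe-labelled peptides were streptavidin-enriched and quantified by nano-LC parallel reaction monitoring MS. Engagement (%) relative to DMSO controls.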

[2] = test system: HCT 116 cells; experiment: Cell growth assay (CellTiter-Glo 2.0), HCT 116 MSI-H cell line; conditions: Homo sapiens, HCT-116, 120 h, read-out: Cell Growth Inhibition GI50 HCT-116
[3] = target: hWRN(519-1227)_C-H3CV-GFP-10His (Homo sapiens, UniProt Q14191); experiment: Helicase Assay for WRN Inhibition (ATP-dependent, fluorescence based)
hWRN(519-1227)_C-H3CV-GFP-10His, sequence (Q14191 519-1227): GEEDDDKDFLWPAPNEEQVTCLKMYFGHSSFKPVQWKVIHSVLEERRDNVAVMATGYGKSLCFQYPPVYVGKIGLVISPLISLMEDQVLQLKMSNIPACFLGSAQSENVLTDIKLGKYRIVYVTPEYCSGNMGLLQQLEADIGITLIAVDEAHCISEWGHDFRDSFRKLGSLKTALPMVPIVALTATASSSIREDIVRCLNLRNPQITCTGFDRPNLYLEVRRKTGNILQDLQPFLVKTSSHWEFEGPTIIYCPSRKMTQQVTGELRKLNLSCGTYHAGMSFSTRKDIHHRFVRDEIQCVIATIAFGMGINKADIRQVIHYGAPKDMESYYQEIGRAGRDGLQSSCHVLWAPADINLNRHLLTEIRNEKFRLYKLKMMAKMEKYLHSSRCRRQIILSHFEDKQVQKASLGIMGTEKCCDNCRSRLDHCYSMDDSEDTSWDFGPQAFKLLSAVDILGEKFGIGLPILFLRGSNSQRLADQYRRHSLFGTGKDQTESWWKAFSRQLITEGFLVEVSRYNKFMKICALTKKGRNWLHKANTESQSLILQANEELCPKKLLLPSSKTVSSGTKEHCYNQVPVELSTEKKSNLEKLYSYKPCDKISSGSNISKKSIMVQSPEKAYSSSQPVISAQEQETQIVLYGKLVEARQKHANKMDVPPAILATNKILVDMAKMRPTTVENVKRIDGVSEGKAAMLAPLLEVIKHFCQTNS

[4] = target: T1, WRN C727; experiment: Target engagement, in situ (cell), OCI-AML2; type: cell-based; conditions: OCI-AML2 cells, read-out: OCI-AML2 WRN C727 TE50 in situ (cell)
Procedure: Cells or cell lysates were treated with a dose response of compound followed by probe treatment, which labels solvent exposed cysteines. Proteins were enzymatically digested with trypsin and probe-labelled peptides were enriched with streptavidin. Isolated peptides were then separated using reversed-phase liquid chromatography on a C18 column (Dionex Ultimated 3000 nano-LC, Thermo). Peptides were analyzed by parallel reaction monitoring mass spectrometry (Exploris 120, Thermo).
Target engagement (%) is calculated relative to DMSO treated control samples.

[5] = test system: SW480 cells; experiment: Cell growth assay (CellTiter-Glo 2.0), SW480 MSS cell line; conditions: Homo sapiens, SW480, 120 h, read-out: Cell Growth Inhibition GI50 SW480
[6] = WRN Helicase IC50, 30 min preincubation with ATP, 30 min reaction

| SMILES | IC50 [1] | GI50 [2] | IC50 [3, 6] | IC50 [4] | GI50 [5] | IC50 [3] |
| --- | --- | --- | --- | --- | --- | --- |
| C[C@@H](/C=C/S(C)(=O)=O)NC(=O)c1cnc(C2CCCC2)nc1Oc1cc(F)cc(F)c1 [Example 116, (S,E)-2-cyclopentyl-4-(3,5-difluorophenoxy)-N-(4-(methylsulfonyl)but-3-en-2-yl)pyrimidine-5-carboxamide] | 22.3 µM | 2.5 µM | 2.2 µM | 1.5 µM | > 10 µM |  |
| C[C@@H](/C=C/S(C)(=O)=O)NC(=O)c1cnc(C2CC2)nc1OC1CCCC1 [Example 144, (S,E)-4-(cyclopentyloxy)-2-cyclopropyl-N-(4-(methylsulfonyl)but-3-en-2-yl)pyrimidine-5-carboxamide] | 20 µM | 0.693 µM | 1.89 µM | 0.8 µM | > 16 µM |  |
| C[C@@H](/C=C/S(C)(=O)=O)NC(=O)c1cnc(C(C)(C)C)nc1OC1CCCC1 [Example 153, (S,E)-2-(tert-butyl)-4-(cyclopentyloxy)-N-(4-(methylsulfonyl)but-3-en-2-yl)pyrimidine-5-carboxamide] | 1.88 µM | 0.165 µM | 0.5 µM | 0.16 µM | > 10 µM |  |
| C[C@@H](/C=C/S(C)(=O)=O)NC(=O)c1cnc(C(C)(C)C)nc1OC1CCCCC1 [Example 154, (S,E)-2-(tert-butyl)-4-(cyclohexyloxy)-N-(4-(methylsulfonyl)but-3-en-2-yl)pyrimidine-5-carboxamide] | 1.33 µM | 0.222 µM | 0.33 µM | 0.14 µM | 8.97 µM |  |
| C[C@@H](/C=C/S(C)(=O)=O)NC(=O)c1cc(C#N)c(C2CCCC2)nc1Oc1ccccc1 [Example 163, (S,E)-5-cyano-6-cyclopentyl-N-(4-(methylsulfonyl)but-3-en-2-yl)-2-phenoxynicotinamide] | 1.76 µM | 0.4 µM | 0.74 µM | 0.56 µM | 3.9 µM |  |

The remaining lines, values ahead:

| IC50 [1] | GI50 [2] | IC50 [3, 6] | IC50 [4] | GI50 [5] | IC50 [3] | SMILES |
| --- | --- | --- | --- | --- | --- | --- |
| > 100 µM | 7.1 µM | 12 µM | 21.4 µM | > 10 µM |  | C[C@@H](/C=C/S(C)(=O)=O)NC(=O)c1cnc(NC2CCCC2)nc1Oc1ccccc1 [Example 164, (S,E)-2-(cyclopentylamino)-N-(4-(methylsulfonyl)but-3-en-2-yl)-4-phenoxypyrimidine-5-carboxamide] |
| 0.64 µM | 0.102 µM |  | 0.1 µM | > 13.8 µM | 0.241 µM | CC(C)(C)c1ncc(C(=O)N2CC(=CS(C)(=O)=O)C2)c(Oc2ccccc2)n1 [Example 189, (2-(tert-butyl)-4-phenoxypyrimidin-5-yl)(3-((methylsulfonyl)methylene)azetidin-1-yl)methanone] |
| 0.0932 µM | 0.017 µM | 0.0483 µM | 0.00875 µM | 13.6 µM |  | CS(=O)(=O)/C=C/[C@@H](NC(=O)c1cnc(C(F)(F)C2CC2)nc1Oc1ccccc1)C1CC1 [Example 224, (S,E)-N-(1-cyclopropyl-3-(methylsulfonyl)allyl)-2-(cyclopropyldifluoromethyl)-4-phenoxypyrimidine-5-carboxamide] |
| 0.119 µM | 0.017 µM | 0.0544 µM | 0.016 µM | 18 µM |  | CS(=O)(=O)/C=C/[C@@H](NC(=O)c1cnc(C(F)(F)C2CC2)nc1Oc1ccccc1)C1CCC1 [Example 225, (S,E)-N-(1-cyclobutyl-3-(methylsulfonyl)allyl)-2-(cyclopropyldifluoromethyl)-4-phenoxypyrimidine-5-carboxamide] |
| 16.3 µM | 3.8 µM |  | 6.65 µM | 8.1 µM | 2.3 µM | N#CC=C1CN(C(=O)c2cnc(C3CC3)nc2Oc2ccccc2)C1 [Example 264, 2-(1-(2-cyclopropyl-4-phenoxypyrimidine-5-carbonyl)azetidin-3-ylidene)acetonitrile] |
| 8.28 µM | 0.21 µM |  | 3.96 µM | 7.8 µM | 0.38 µM | C=C(C#N)CNC(=O)c1cnc(C(F)(F)C2CC2)nc1Oc1ccccc1 [Example 272, N-(2-cyanoallyl)-2-(cyclopropyldifluoromethyl)-4-phenoxypyrimidine-5-carboxamide] |
